Consider one molecule from patent publication US6025365A, “Chelerythrine and radiation combined tumor therapy” (Arch Development Corp., priority 1997, dated 2000).

Data set [1] has as its system WEHI-231 cells. The experiment in a line: Ceramide production by DAG kinase assay. The class given is cell-based, murine. The following applies: Mus musculus, WEHI231, 0.5 h; 10 μM chelerythrine, approximately 30 minutes; read-out: ceramide generation increase. As for the experimental part: FIG. 7A. Inhibition of PKC causes an increase in ceramide production through the activation of a neutral sphingomyelinase and decreases in sphingomyelin levels. Ceramide production was quantitated using the DAG kinase assay for WEHI-231 JM cells and total lipid extraction was used to assay sphingomyelin mass. Following addition of 10 μM chelerythrine, cells were lysed at the appropriate time points as described herein. Each data point represents the average percentage change in ceramide or sphingomyelin generation from baseline derived from at least 8 independent studies for all time points with the exception of those marked with * (n=4). Standard deviations depicted by error bars.
FIG. 7B. […] Ceramide production and sphingomyelin mass was quantitated identical to that for chelerythrine. Cells were lysed 2 hours following the addition of 250 nM calphostin C. […]
Quantitation of ceramide by diacylglycerol kinase was similar to that described by Dressler and Kolesnick (1990). […] Data was calculated as pmoles of ceramide/10^6 cells by scintillation counting. […]
In order to test whether PKC inhibition alters ceramide production, the DAG kinase assay was used to quantify intracellular ceramide following chelerythrine and calphostin C treatment (Dressler and Kolesnick, 1990; Preiss et al., 1986). […]

For data set [2], the system named is WEHI-231 cells. The data set can be described thus: Apoptosis / cell death of WEHI-231 (propidium iodide FACS, gel electrophoresis, DAPI). The following applies: 24 hours; chelerythrine 10 μM or calphostin C 250 nM. The class given is cell-based, murine. As for the experimental part: Cells undergoing apoptosis also shrink in size.
Cells, 5×10^5, were centrifuged at 1000 rpm and resuspended in approximately 100 μl cell culture media. The cell suspension was then mixed with 100 μl of DAPI (4',6-iamidino-2-phenylindole, Sigma D9542, 1 μg/ml in PBT (PBS+1% Triton X-100)). One drop of this mixture was placed on a microslide with a coverslip. The cells were viewed by fluorescence microscopy using an Olympus BX-40 microscope with a 100 Watt Mercury lamp, a 16 or 40 X Fluorite objective, N.A. 0.75, (Leco #1-UB527) and a UV filter cube (ex 330-385 nm, em 420 nm, wide band pass, Leco #U-M536). Images were photographed using an Optronics cooled low-light video camera (Leco #DEI-470TB) to which was attached a 2X coupler (Leco #HR200-CMT). The image was saved to a digital file at 72 dpi.
DNA degradation was assessed as previously described (Gottschalk et al., 1993; 1994). Briefly, following treatment in 100 mm plates or 24 well plates, cells were collected and lysed in 0.5 ml lysis buffer (0.6% SDS+10 mM EDTA, pH 7.0). NaCl was added to a final concentration of 1M, mixed by inversion, incubated for 12 hours at 4° C. and then spun at 14,000 g for 30 minutes. Samples were treated with chloroform (1:1) and precipitated in ethanol prior to electrophoresis in a 3% agarose gel and visualized with ethidium bromide.

A further data set concerns neutral sphingomyelinase. The data set can be described thus: Mixed micellar assay, neutral sphingomyelinase activity in treated SQ-20B cells. Type of data set: cell-based, human. The following applies: 5 μM chelerythrine 30 minutes then 10 Gy; within 5 minutes of IR. How it is done:
FIG. 5A. […] The mixed micellar assay for sphingomyelinase activity was used to quantitate increased enzymatic activity.
The mixed micellar sphingomyelinase assay using ^[14] C labeled sphingomyelin was performed as described (Wiegmann et al., 1994) with minor modifications as described herein. Exponentially growing cells 2×10^7 were treated, collected, and lysed in 200 μl of neutral buffer (20 mM Hepes, pH 7.4; 10 mM MgCl2, 2 mM EDTA, 5 mM DTT, […], 10 mM b-glycerolphosphate, 750 μM ATP, 1 mM PMSF, Leupeptin, Pepstatin, 2% Triton X-100) or an acid buffer (pH=5.5, 2% Triton X-100, 1 mM PMSF, Leupeptin, Pepstatin). After incubation for 5 minutes at 4° C., cells were homogenized by sonication and cell debris were removed by low speed centrifugation (800×g). The protein concentration was measured using the BioRad protein assay system (BioRad). Protein (50 μg) was incubated for 2 hours at 37° C. in a buffer (1 ml final volume) containing 20 mM HEPES, 1 mM MgCl2, and 0.9 μl [N-methyl-^14 C sphingomyelin].

The subject of a further data set is SQ-20B cells. The experiment in a line: Viability by propidium iodide exclusion and FACS. The conditions noted are these: 2.5 μM chelerythrine and 8 Gy. As for the experimental part: Cells, 2.5-3.5×10^5, were cultured in 24-well tissue culture plates for all experiments following standard procedures as previously described (Chmura et al., 1996a; 1996b). Cells were treated with varying concentrations of chelerythrine, incubated for 30 minutes at 37° C. and then irradiated. Radiation for all samples was delivered using a ^60 Co-irradiator (Gammacell 220, Atomic Energy of Canada) at a dose rate of 2.0 Gy/sec. After the indicated time points, cells were harvested, washed once in PBS, and resuspended in PBS containing […] propidium iodide. […] Cells undergoing apoptosis also shrink in size. Cells were analyzed via flow cytometry (FACS) following standard procedures as described in (Chmura et al., 1996a; 1996b) on a FACScan (Becton-Dickson) using Lysis II software.

For `COc1ccc2c(c[n+](C)c3c4cc5c(cc4ccc23)OCO5)c1OC` [chelerythrine, 1,2-dimethoxy-12-methyl[1,3]benzodioxolo[5,6-c]phenanthridinium], the activation at 10 µM in the data set on WEHI-231 cells [1] worked out at 100%. In addition, in the data set with WEHI-231 cells [2], the cell death result was “greater than 90%”. In the data set with neutral sphingomyelinase, the “neutral sphingomyelinase activity, x-rays and chelerythrine” value was “about 200 % of control”. For the same molecule, in the data set with SQ-20B cells, the “decrease in cell survival” value is on record as 85%.
